Active and inactive are the calls of the source.
How the values were obtained:
[1] = target: Cytochrome P450 2D6 (Homo sapiens, UniProt P10635);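 further: CYP2D6 member of a cytochrome P450 panel assay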
[2] = target: Cytochrome P450 2C19 (Homo sapiens, UniProt P33261); test: Cytochrome panel assay with activity outcomes. Panel member name: p450-cyp2c19 Compounds with AC50 equal or less than 10 uM are considered active; format: functional
[3] = target: T1, Cytochrome P450 1A2 (Homo sapiens, UniProt P05177);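 further: PubChem cytochrome P450 panel assay, CYP1A2 panel member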
T1 sequence (P05177 whole entry): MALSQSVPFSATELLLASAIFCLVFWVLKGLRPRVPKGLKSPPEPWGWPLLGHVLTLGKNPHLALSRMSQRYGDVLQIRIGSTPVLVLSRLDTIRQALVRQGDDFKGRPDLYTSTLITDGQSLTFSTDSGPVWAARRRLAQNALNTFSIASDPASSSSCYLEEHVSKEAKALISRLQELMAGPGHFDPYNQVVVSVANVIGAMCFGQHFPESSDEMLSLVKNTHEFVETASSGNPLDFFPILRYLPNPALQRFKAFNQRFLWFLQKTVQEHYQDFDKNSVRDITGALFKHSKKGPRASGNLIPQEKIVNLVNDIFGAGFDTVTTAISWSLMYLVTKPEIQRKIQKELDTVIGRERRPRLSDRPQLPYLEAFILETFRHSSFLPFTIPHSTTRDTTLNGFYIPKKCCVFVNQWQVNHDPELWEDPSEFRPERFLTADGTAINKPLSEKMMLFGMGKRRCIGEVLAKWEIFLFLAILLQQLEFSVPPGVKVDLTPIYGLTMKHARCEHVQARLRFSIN

[4] = target: Cytochrome P450 3A4 (Homo sapiens, UniProt P08684);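 further: CYP3A4 tested as one member of a cytochrome P450 panel screen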
Chain of Cytochrome P450 3A4 (P08684 whole entry): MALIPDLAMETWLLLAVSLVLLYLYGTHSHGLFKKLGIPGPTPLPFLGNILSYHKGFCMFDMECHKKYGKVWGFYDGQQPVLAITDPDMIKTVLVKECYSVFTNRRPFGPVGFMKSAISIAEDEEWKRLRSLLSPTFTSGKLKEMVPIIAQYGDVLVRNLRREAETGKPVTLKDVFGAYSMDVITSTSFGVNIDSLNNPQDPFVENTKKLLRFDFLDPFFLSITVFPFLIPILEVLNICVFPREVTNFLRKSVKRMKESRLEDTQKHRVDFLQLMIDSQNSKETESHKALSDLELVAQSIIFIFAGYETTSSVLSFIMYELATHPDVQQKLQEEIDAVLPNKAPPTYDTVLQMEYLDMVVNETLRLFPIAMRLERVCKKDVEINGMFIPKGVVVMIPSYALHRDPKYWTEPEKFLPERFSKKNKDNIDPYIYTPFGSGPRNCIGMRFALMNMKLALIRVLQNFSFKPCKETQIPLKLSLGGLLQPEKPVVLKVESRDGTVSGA

[5] = target: Cytochrome P450 2C9 (Homo sapiens, UniProt P11712)
Chain of Cytochrome P450 2C9 (P11712 whole entry): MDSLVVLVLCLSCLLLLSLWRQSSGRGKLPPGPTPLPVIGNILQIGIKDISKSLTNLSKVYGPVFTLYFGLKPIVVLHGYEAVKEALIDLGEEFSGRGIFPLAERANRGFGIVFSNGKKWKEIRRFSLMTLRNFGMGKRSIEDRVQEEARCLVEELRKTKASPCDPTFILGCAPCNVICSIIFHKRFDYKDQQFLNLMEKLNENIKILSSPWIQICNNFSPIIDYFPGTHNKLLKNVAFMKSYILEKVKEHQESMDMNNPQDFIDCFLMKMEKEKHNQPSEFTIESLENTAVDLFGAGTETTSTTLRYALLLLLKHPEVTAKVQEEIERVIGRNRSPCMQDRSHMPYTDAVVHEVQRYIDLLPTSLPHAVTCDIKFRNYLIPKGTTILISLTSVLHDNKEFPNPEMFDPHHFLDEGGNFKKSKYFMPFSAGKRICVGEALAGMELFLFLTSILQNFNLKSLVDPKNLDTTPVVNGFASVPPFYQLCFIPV

[6] = target: T2, Replicative DNA helicase DnaB (Mycobacterium tuberculosis, UniProt P9WMR3); test: DnaB intein splicing inhibitors, dose response, biochemical, cell-free fluorescence (AID 449749); format: functional
T2 sequence (P9WMR3 whole entry): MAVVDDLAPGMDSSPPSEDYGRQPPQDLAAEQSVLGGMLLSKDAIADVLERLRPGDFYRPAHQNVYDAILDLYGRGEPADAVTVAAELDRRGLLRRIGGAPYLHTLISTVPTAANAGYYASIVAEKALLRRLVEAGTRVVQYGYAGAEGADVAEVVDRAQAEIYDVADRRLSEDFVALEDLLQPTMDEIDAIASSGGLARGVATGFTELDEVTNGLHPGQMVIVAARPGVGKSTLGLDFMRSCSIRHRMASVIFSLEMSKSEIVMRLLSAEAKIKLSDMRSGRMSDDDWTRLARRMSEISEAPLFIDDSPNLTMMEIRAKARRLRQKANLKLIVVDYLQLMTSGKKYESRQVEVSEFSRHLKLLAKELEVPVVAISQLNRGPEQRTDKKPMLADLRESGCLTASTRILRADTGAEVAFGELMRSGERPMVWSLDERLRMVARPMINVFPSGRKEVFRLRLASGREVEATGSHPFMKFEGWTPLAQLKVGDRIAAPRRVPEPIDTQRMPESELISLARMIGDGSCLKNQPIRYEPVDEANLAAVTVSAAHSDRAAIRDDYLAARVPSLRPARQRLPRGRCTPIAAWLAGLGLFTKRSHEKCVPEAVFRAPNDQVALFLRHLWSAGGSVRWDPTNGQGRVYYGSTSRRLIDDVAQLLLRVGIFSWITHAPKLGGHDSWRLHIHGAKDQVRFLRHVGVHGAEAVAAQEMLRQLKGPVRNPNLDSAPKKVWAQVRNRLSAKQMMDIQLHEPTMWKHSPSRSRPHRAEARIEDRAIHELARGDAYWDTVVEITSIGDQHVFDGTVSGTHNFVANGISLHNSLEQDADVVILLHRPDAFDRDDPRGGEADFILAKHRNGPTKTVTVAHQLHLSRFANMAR

[7] = target: T3, Protein RecA (Mycobacterium tuberculosis, UniProt P9WHJ3); test: Fluorescence Cell-Free Homogeneous Dose Retest to Identify Inhibitors of RecA-Intein Splicing Activity. [Related pubchem assays (depositor defined):AID2097, AID2223, AID489010, AID492950]; format: functional
T3 sequence (P9WHJ3 whole entry): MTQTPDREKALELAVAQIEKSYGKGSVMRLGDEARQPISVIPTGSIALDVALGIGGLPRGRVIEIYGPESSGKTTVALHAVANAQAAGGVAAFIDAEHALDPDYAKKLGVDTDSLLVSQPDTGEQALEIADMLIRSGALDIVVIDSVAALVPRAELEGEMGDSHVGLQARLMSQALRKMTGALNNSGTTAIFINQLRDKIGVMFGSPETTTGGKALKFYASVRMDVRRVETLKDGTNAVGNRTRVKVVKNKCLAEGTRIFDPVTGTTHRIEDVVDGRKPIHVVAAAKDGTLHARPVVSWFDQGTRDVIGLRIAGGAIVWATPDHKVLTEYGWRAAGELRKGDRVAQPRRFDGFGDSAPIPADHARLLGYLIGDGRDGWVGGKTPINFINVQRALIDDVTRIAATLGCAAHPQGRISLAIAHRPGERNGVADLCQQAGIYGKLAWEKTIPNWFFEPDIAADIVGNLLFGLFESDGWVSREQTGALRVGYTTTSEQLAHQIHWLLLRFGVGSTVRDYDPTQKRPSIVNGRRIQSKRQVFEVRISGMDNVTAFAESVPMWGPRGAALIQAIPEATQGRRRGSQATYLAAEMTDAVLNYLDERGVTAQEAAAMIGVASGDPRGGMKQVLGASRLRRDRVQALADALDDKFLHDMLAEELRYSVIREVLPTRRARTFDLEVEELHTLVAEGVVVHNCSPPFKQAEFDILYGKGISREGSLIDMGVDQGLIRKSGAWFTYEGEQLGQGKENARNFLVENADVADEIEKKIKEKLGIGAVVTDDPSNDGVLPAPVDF

[8] = target: T4, Heat shock factor protein 1 (Mus musculus, UniProt P38532); test: inhibition of MG132-induced HSE-luciferase signal, confirmation, cell-based, NIH3T3, luminescence, dose retest (AID 2382); format: functional;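 further: NIH3T3 fibroblasts with HSF1-driven luciferase reporter stressed by proteasome inhibitor MG132; luminescence from HSF1-driven luciferase expression after 8 hours of MG132 stress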
T4 sequence (P38532 whole entry): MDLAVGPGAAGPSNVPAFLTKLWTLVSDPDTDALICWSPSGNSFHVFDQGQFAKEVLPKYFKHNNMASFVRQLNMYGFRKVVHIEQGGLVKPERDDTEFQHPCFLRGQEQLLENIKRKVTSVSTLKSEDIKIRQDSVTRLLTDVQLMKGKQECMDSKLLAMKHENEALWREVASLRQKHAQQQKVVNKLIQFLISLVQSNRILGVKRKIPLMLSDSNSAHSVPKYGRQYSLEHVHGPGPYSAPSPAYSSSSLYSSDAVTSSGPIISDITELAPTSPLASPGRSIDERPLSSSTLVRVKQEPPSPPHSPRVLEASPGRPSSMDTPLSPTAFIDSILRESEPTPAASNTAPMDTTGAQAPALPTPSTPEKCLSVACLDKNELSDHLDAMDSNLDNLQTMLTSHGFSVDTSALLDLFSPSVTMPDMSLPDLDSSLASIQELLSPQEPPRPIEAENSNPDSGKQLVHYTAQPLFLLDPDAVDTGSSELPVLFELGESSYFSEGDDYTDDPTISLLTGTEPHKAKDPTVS

[9] = C. albicans growth with fluconazole, confirmation, fluorescence, retest (AID 2467); format: functional, cell-based

Chain of Cytochrome P450 2C19 (P33261 whole entry): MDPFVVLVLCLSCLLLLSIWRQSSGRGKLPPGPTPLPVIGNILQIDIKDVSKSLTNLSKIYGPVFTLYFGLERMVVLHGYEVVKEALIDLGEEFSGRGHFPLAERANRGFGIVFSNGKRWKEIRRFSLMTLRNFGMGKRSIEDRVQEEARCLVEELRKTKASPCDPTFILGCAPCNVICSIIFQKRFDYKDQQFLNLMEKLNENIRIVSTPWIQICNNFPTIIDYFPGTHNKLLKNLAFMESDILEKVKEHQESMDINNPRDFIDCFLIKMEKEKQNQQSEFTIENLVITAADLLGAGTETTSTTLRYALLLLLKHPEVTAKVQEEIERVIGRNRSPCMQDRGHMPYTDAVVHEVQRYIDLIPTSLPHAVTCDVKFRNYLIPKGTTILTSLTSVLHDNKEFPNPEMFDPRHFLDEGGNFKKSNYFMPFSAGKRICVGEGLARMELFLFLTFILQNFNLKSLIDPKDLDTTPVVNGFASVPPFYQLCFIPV
Chain of Cytochrome P450 2D6 (P10635 whole entry): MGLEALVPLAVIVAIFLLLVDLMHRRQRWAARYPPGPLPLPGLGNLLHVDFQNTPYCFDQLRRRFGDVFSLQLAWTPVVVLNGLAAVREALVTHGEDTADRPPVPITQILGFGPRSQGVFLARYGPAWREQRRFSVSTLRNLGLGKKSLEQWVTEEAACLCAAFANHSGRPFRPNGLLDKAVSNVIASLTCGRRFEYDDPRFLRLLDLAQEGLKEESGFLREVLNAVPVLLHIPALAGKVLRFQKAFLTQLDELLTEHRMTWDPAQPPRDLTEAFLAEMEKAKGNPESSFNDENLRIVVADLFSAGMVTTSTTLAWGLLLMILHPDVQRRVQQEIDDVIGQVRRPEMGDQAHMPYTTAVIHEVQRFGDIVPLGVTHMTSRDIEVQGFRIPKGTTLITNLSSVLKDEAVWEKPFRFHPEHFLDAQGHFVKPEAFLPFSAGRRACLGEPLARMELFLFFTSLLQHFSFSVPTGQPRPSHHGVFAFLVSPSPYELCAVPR

CN(Cc1ccco1)C(=O)C1CCC(=O)N1Cc1ccc(F)cc1 (centres undefined)
AC50 [1]: 25.1 µM (inconclusive)

CS(=O)(=O)N1CCC2(CCCN(c3ccccn3)C2)CC1
AC50 ([2]; read-out: AC50): 15.8 µM (inconclusive) | AC50 [1]: 25.1 µM (inconclusive) | AC50 [3]: 25.1 µM (inconclusive) | AC50 [4]: 15.8 µM (inconclusive)

N#CCCSC(=S)[C@H]1CCCC1=N
AC50 ([2]; read-out: AC50): 5.01 µM (inconclusive) | AC50 [4]: 2.51 µM (inconclusive)

FC(F)(F)c1ccccc1-c1nc(NC2CC2)c2ccccc2n1
AC50 ([2]; read-out: AC50): 10 µM (inconclusive) | AC50 [1]: 31.6 µM (inconclusive)

CN1CCN(c2ncc3nc(-c4cn(C)c5ccccc45)c(=O)n(CCC#N)c3n2)CC1
AC50 ([2]; read-out: AC50): 39.8 µM (inconclusive) | AC50 [1]: 39.8 µM (inconclusive) | AC50 [4]: 25.1 µM (inconclusive) | AC50 [5]: 39.8 µM (inconclusive)

COc1ccc(-c2cc(C(F)(F)F)n3nc(C(=O)NCc4ccco4)c(Cl)c3n2)cc1
AC50 ([2]; read-out: AC50): 1.78 µM (inconclusive) | AC50 [4]: 3.16 µM (inconclusive)

CCOc1cc(/C=C(\C#N)C(=O)Nc2cccc(C(=O)O)c2)cc(Br)c1OC(=O)c1ccc(OC)cc1
AC50 [6]: 4.04 µM (active) | EC50 [7]: 13.2 µM (active)

C/C=C(\C)C(=O)O[C@@H]1C(C)=C2[C@H]([C@@H]1OC(=O)CCCCCCC)[C@@](C)(OC(C)=O)C[C@@H](OC(=O)CCC)[C@@]1(O)[C@H]2OC(=O)[C@]1(C)O
AC50 [1]: 39.8 µM (inconclusive) | AC50 [3]: 39.8 µM (inconclusive)

CCOc1cc(/C=C2\C(=N)N3N=C(S(=O)(=O)CC)SC3=NC2=O)ccc1OC(=O)c1ccco1
AC50 [6]: > 380 µM (inactive) | EC50 [7]: 22.1 µM (active)

O=C1c2ccccc2CC[C@H]1CNCCc1ccc(O)cc1
AC50 ([2]; read-out: AC50): 31.6 µM (inconclusive) | AC50 [4]: 7.94 µM (inconclusive) | AC50 [5]: 39.8 µM (inconclusive)

CCOc1ccc(C(=O)C2=C(O)C(=O)N(CCCn3ccnc3)C2c2cccs2)cc1Cl (centres undefined)
EC50 [8]: > 195 µM (not active) | AC50 [1]: 14.1 µM (inconclusive)

c1nc(NC2CCNCC2)c2cc(-c3ccc4c(c3)OCO4)ccc2n1
AC50 [1]: 20 µM (inconclusive)

Cc1ccc(S(=O)(=O)O[C@H]2CN3CCC2CC3)cc1
AC50 [1]: 3.98 µM (inconclusive)

O=C(c1ccccc1)[C@H]1[C@H](c2ccccc2[N+](=O)[O-])N1C1CCCCC1 (some centres undefined)
AC50 [3]: 0.631 µM (inconclusive) | AC50 [4]: 3.98 µM (inconclusive)

CCOC(=O)C1CCCN(C(=O)CCn2nc(-c3ccccc3)ccc2=O)C1 (centres undefined)
AC50 [4]: 17.8 µM (inconclusive) | AC50 [5]: 31.6 µM (inconclusive)

CNC(=O)/C=C1\NC(C)(C)Cc2c1ccc1ccccc21
AC50 [4]: 15.8 µM (inconclusive) | AC50 [5]: 5.01 µM (inconclusive)

C[S+]([O-])c1ccccc1-c1nc(-c2cc(C(F)(F)F)cc(C(F)(F)F)c2)no1 (centres undefined)
AC50 ([2]; read-out: AC50): 8.91 µM (inconclusive) | AC50 [3]: 2.24 µM (inconclusive) | AC50 [5]: 17.8 µM (inconclusive)

CN(C)Cc1ccccc1-c1cncnc1NCc1cccnc1
AC50 [3]: 12.6 µM (inconclusive)

O=[N+]([O-])c1ccc2c(/N=N\c3ccc4ccccc4c3O)c(O)cc(S(=O)(=O)O)c2c1
AC50 ([2]; read-out: AC50): 2.51 µM (inconclusive) | AC50 [1]: 0.631 µM (inconclusive) | AC50 [4]: 3.98 µM (inconclusive)

Cc1[nH]c2ccccc2c1C(c1ccccn1)N1CCC(C)CC1 (centres undefined)
AC50 [1]: 25.1 µM (inconclusive)

Nc1ccc(SCCN2C(=O)c3ccccc3C2=O)cc1
EC50 [9]: > 38 µM (not active)

Cc1cc(C)c(S(C)(=O)=O)c(Oc2cccc(C(F)(F)F)c2)n1
AC50 [6]: 213 µM (active) | EC50 [7]: > 380 µM (inactive)

COc1cccc(C(=O)O/N=C(\N)c2ccc([N+](=O)[O-])cc2)c1OC
AC50 [6]: > 380 µM (inactive) | EC50 [7]: > 380 µM (inactive)

Cc1c(-c2c(C#N)c(N)nc3c2CCCCCC3)cnn1C
AC50 [3]: 35.5 µM (inconclusive) | AC50 [5]: 22.4 µM (inconclusive)

COc1ncc2nc(-c3cc(F)cc(F)c3)c(=O)n(CCC#N)c2n1
AC50 [4]: 20 µM (inconclusive)

Cn1ncc([N+](=O)[O-])c1C(=O)Nc1ccc2c(c1)OCCO2
AC50 ([2]; read-out: AC50): 0.0355 µM (inconclusive) | AC50 [1]: 12.6 µM (inconclusive) | AC50 [5]: 11.2 µM (inconclusive)

CC(=O)c1cccc(NC(=O)Oc2ccccc2)c1
AC50 [2]: inconclusive | AC50 [3]: 28.2 µM (inconclusive)

CC1=C[N+](=O)c2ccccc2[N+]1=O
AC50 [3]: 6.31 µM (inconclusive)

CN1CCCC[C@@H]1CCN1CCCCC1
AC50 [3]: 0.01 µM (inconclusive)

CCCCN(c1ccccc1)c1ncnc2c1cnn2C
AC50 [3]: 0.631 µM (inconclusive)

Cc1nc2ccccc2cc1C[N+]12CN3CN(CN(C3)C1)C2
AC50 [3]: 0.631 µM (inconclusive)

Cn1cc(C(=O)N/N=C/C(Br)=C\c2ccccc2)ccc1=O
AC50 ([2]; read-out: AC50): 28.2 µM (inconclusive) | AC50 [3]: 3.55 µM (inconclusive)

C/C(CC(=O)Nc1cc(C)ccn1)=N\NC(=O)C(=O)NC(C)C
AC50 [6]: 19.6 µM (active) | EC50 [7]: 4.48 µM (active)

C/C(=C\C(=O)c1ccc(Cl)cc1)NCc1ccc2c(c1)OCO2
AC50 [1]: 5.01 µM (inconclusive) | AC50 [4]: 0.794 µM (inconclusive)

COc1ccccc1CNc1ncnc2ccc(-c3ccc(C(=O)N(C)C)cc3)cc12
AC50 ([2]; read-out: AC50): 20 µM (inconclusive) | AC50 [1]: 39.8 µM (inconclusive)

CCCCCCCCC(=O)NCc1ccc(O)c(OC)c1 [NONIVAMIDE]
AC50 ([2]; read-out: AC50): 7.94 µM (inconclusive) | AC50 [1]: 25.1 µM (inconclusive)
